Converted amounts (≈) assume the structure as drawn.
Experiments:
[1] = 20° C.; cited from earlier work
[2] = Time to complete dissolution during preparation of high concentration solutions; assay type: physicochemical
Description: Solubilization of Baclofen by Heat and Sonication. Appropriate amounts of baclofen were weighed and added to appropriate volumes of normal saline in order to produce mixtures containing 4, 5, 6, 8 or 10 mg/mL baclofen. All samples had undissolved baclofen powder present immediately after mixing. Samples having concentrations of 4, 5 or 6 mg/mL of baclofen were heated to 70° C. Samples having concentrations of 8 and 10 mg/mL of baclofen were heated to 95° C. Intense agitation was applied to all of the samples by sonicating the samples during the heating step. Heating and sonication were continued until all of the powder dissolved, and a clear solution with no residual particulate matter resulted. For the 4, 5, and 6 mg/mL samples, this occurred in about 20 to 30 minutes. […] Again, the solutions were clear with no residual particulate matter.
Solubilization of Baclofen by Heat and High-Speed Stirring. Appropriate amounts of baclofen were weighed and added to appropriate volumes of normal saline in order to produce mixtures containing 4, 5, 6, 8 or 10 mg/mL baclofen. All samples had undissolved baclofen powder present immediately after mixing. Samples having concentrations of 4, 5 or 6 mg/mL of baclofen were heated to 70° C. Samples having concentrations of 8 and 10 mg/mL of baclofen were heated to 95° C. Intense agitation was applied to all of the samples by high-speed stirring. A high-speed stir bar was placed in each of the containers for each of the baclofen concentrations was stirred using a Thermolyne stirrer at a speed of about 600 rpm while the solutions were heated. This was designed to simulate the use of a high-speed high shear mixer in a larger industrial setting. Again the heating at 70° C. for the 4, 5, and 6 mg/mL concentrations and to 95° C. for the 8 and 10 mg/mL concentrations and high-speed stirring were continued until all of the powder had dissolved and a clear solution with no residual particulate matter resulted. This occurred within about 20 minutes with all samples.
Acidification with Back Titration. Baclofen concentrations of 4, 5, 6, 8, and 10 mg/mL were prepared by dissolving appropriate amounts of baclofen powder in 0.1 N hydrochloric acid. […] The solutions were then back titrated with 0.1 N sodium hydroxide to reach a pH about 5.0 to 5.1, which is within the current product pH range for commercial baclofen solutions, and brought to volume with 0.9% sodium chloride. After complete dissolution had occurred, the solutions were filtered through 0.22-micron sterilizing filters into sterile empty vials. The vials were stored at room temperature, under refrigeration, and at 37° C. to simulate “in use” conditions in an implanted pump.
Alkalinization with Back Titration. Baclofen concentrations of 4, 5, 6, 8, and 10 mg/mL were prepared by dissolving appropriate amounts of baclofen powder in 0.1 N sodium hydroxide. […] The solutions were then back titrated with 0.1 N hydrochloric acid to reach a pH about 6.9 to 7.0, which is within the current product range, and brought to volume with 0.9% sodium chloride. After complete dissolution had occurred, the solutions were filtered through 0.22-micron sterilizing filters into sterile empty vials. The vials were stored at room temperature, under refrigeration, and at 37° C. to simulate “in use” conditions in an implanted pump.

[3] = aqueous solution, room temperature, neutral pH (pH 6 to 7); calculated (Ahuja, 1985); cited from earlier work
[4] = intrathecal injection at effective CSF concentrations vs oral administration; cited from earlier work
[5] = Practical solubility by direct dissolution in normal saline, HPLC after 0.22-micron filtration; assay type: physicochemical; conditions: about 23° C.
Description: The inventors attempted to prepare aqueous baclofen solutions at concentrations of 3 mg/mL, 4 mg/mL, and 5 mg/mL by direct dissolution in 0.9% sodium chloride injection, USP (normal saline). The normal saline was commercially procured by the inventors and was at ambient room temperature (about 23° C.) for use in the testing. Appropriate amounts of authentic baclofen powder were weighed and added to the normal saline and shaken to aid in dissolution. […] Both the 4-mg/mL and especially the 5-mg/mL concentration retained large amounts of undissolved powder. […] The solutions were visibly unacceptable for use as an injection. […] The inventors believe that this the concentration represents the “practical solubility” of baclofen.
As used herein, the “practical solubility” is the concentration of baclofen that can be dissolved using simple practical dissolution steps such as adding the powder to an aqueous solvent and then shaking or stirring the solvent by hand or with a mechanical device. When attempting to prepare solutions having concentrations higher than the practical solubility concentration, it is common to observe residual undissolved matter, precipitation of microparticulates, or both.

NCC(CC(=O)O)c1ccc(Cl)cc1 (centres unmarked) [Baclofen, 4-amino-3-(p-chlorophenyl) butyric acid]
pKa1 [1]: 3.8±0.1
pKa2 [1]: 9.62±0.1
time until all powder dissolved (clear solution) ([2]; 4, 5, 6 mg/mL at 70° C. and 8, 10 mg/mL at 95° C., normal saline, high-speed stirring about 600 rpm (Example 2)): ≤ 20 min
time until powder dissolved (clear solution) ([2]; 4, 5, 6, 8, and 10 mg/mL in 0.1 N hydrochloric acid (Example 3)): within a few minutes
time until powder dissolved (clear solution) ([2]; 4, 5, 6, 8, and 10 mg/mL in 0.1 N sodium hydroxide (Example 4)): within a few minutes
time until all powder dissolved (clear solution) ([2]; 4, 5, and 6 mg/mL in normal saline, 70° C., sonication (Example 1)): 20 to 30 min
time until all powder dissolved (clear solution) ([2]; 8 and 10 mg/mL in normal saline, 95° C., sonication (Example 1)): about 20 minutes
time before there is 10% decomposition of the dissolved baclofen [3]: 10 years
plasma concentrations with intrathecal injection relative to oral administration [4]: 100 times less
solubility at 1 week ([5]; 0.9% sodium chloride injection, USP (normal saline), saline or isotonic, thermodynamic from solid, normal saline, putative 4 mg/mL and 5 mg/mL samples, shaking one week, filtered 0.22-micron, HPLC, read-out: amount of baclofen actually dissolved (practical solubility)): 3300 to 3500 µg/mL (≈ 15.4 to 16.4 mM)
complete dissolution by direct dissolution ([5]; 4-mg/mL and 5-mg/mL in normal saline, vigorous shaking 60 minutes, then automated shaking for one week): failed to result in complete dissolution

From patent US8357379B2, “High concentration baclofen preparations” (Board of Regents, The University of Texas System, priority 2004, dated 2013)
